According to the NIST ThermoML archive (doi:10.1016/j.fluid.2016.02.009):

Details: Liquid, Vibrating tube method

CCCCCOCCCCC [dipentyl ether]
Details	mass density [kg/m3]
283.15 K, 100 kPa	790.99
283.15 K, 5000 kPa	794.85
283.15 K, 10000 kPa	798.47
283.15 K, 15000 kPa	801.9
283.15 K, 20000 kPa	805.2
283.15 K, 25000 kPa	808.38
283.15 K, 30000 kPa	811.47
283.15 K, 35000 kPa	814.44
283.15 K, 40000 kPa	817.31
283.15 K, 45000 kPa	820.12
283.15 K, 50000 kPa	822.84
283.15 K, 55000 kPa	825.48
283.15 K, 60000 kPa	828.06
283.15 K, 65000 kPa	830.58
288.15 K, 100 kPa	786.98
288.15 K, 5000 kPa	790.95
288.15 K, 10000 kPa	794.65
288.15 K, 15000 kPa	798.17
288.15 K, 20000 kPa	801.55
288.15 K, 25000 kPa	804.81
288.15 K, 30000 kPa	807.94
288.15 K, 35000 kPa	810.97
288.15 K, 40000 kPa	813.93
288.15 K, 45000 kPa	816.78
288.15 K, 50000 kPa	819.54
288.15 K, 55000 kPa	822.24
288.15 K, 60000 kPa	824.87
288.15 K, 65000 kPa	827.41
293.15 K, 100 kPa	782.96
293.15 K, 5000 kPa	787.04
293.15 K, 10000 kPa	790.83
293.15 K, 15000 kPa	794.44
293.15 K, 20000 kPa	797.91
293.15 K, 25000 kPa	801.23
293.15 K, 30000 kPa	804.44
293.15 K, 35000 kPa	807.54
293.15 K, 40000 kPa	810.53
293.15 K, 45000 kPa	813.44
293.15 K, 50000 kPa	816.26
293.15 K, 55000 kPa	819.01
293.15 K, 60000 kPa	821.67
293.15 K, 65000 kPa	824.26
298.15 K, 100 kPa	778.94
298.15 K, 5000 kPa	783.12
298.15 K, 10000 kPa	787.02
298.15 K, 15000 kPa	790.73
298.15 K, 20000 kPa	794.27
298.15 K, 25000 kPa	797.69
298.15 K, 30000 kPa	800.97
298.15 K, 35000 kPa	804.13
298.15 K, 40000 kPa	807.2
298.15 K, 45000 kPa	810.16
298.15 K, 50000 kPa	813.04
298.15 K, 55000 kPa	815.82
298.15 K, 60000 kPa	818.54
298.15 K, 65000 kPa	821.19
303.15 K, 100 kPa	774.9
303.15 K, 5000 kPa	779.22
303.15 K, 10000 kPa	783.2
303.15 K, 15000 kPa	787
303.15 K, 20000 kPa	790.65
303.15 K, 25000 kPa	794.13
303.15 K, 30000 kPa	797.48
303.15 K, 35000 kPa	800.72
303.15 K, 40000 kPa	803.84
303.15 K, 45000 kPa	806.86
303.15 K, 50000 kPa	809.78
303.15 K, 55000 kPa	812.62
303.15 K, 60000 kPa	815.39
303.15 K, 65000 kPa	818.05
308.15 K, 100 kPa	770.87
308.15 K, 5000 kPa	775.29
308.15 K, 10000 kPa	779.38
308.15 K, 15000 kPa	783.28
308.15 K, 20000 kPa	787
308.15 K, 25000 kPa	790.57
308.15 K, 30000 kPa	793.99
308.15 K, 35000 kPa	797.3
308.15 K, 40000 kPa	800.48
308.15 K, 45000 kPa	803.56
308.15 K, 50000 kPa	806.55
308.15 K, 55000 kPa	809.43
308.15 K, 60000 kPa	812.24
308.15 K, 65000 kPa	814.95
313.15 K, 100 kPa	766.82
313.15 K, 5000 kPa	771.35
313.15 K, 10000 kPa	775.57
313.15 K, 15000 kPa	779.56
313.15 K, 20000 kPa	783.37
313.15 K, 25000 kPa	787.03
313.15 K, 30000 kPa	790.53
313.15 K, 35000 kPa	793.9
313.15 K, 40000 kPa	797.15
313.15 K, 45000 kPa	800.28
313.15 K, 50000 kPa	803.33
313.15 K, 55000 kPa	806.26
313.15 K, 60000 kPa	809.11
313.15 K, 65000 kPa	811.88
318.15 K, 100 kPa	762.76
318.15 K, 5000 kPa	767.42
318.15 K, 10000 kPa	771.74
318.15 K, 15000 kPa	775.84
318.15 K, 20000 kPa	779.77
318.15 K, 25000 kPa	783.5
318.15 K, 30000 kPa	787.08
318.15 K, 35000 kPa	790.52
318.15 K, 40000 kPa	793.82
318.15 K, 45000 kPa	797.02
318.15 K, 50000 kPa	800.1
318.15 K, 55000 kPa	803.09
318.15 K, 60000 kPa	806
318.15 K, 65000 kPa	808.83
323.15 K, 100 kPa	758.69
323.15 K, 5000 kPa	763.48
323.15 K, 10000 kPa	767.94
323.15 K, 15000 kPa	772.13
323.15 K, 20000 kPa	776.12
323.15 K, 25000 kPa	779.95
323.15 K, 30000 kPa	783.62
323.15 K, 35000 kPa	787.13
323.15 K, 40000 kPa	790.51
323.15 K, 45000 kPa	793.75
323.15 K, 50000 kPa	796.9
323.15 K, 55000 kPa	799.95
323.15 K, 60000 kPa	802.89
323.15 K, 65000 kPa	805.77
328.15 K, 100 kPa	754.6
328.15 K, 5000 kPa	759.51
328.15 K, 10000 kPa	764.08
328.15 K, 15000 kPa	768.39
328.15 K, 20000 kPa	772.51
328.15 K, 25000 kPa	776.42
328.15 K, 30000 kPa	780.18
328.15 K, 35000 kPa	783.75
328.15 K, 40000 kPa	787.17
328.15 K, 45000 kPa	790.5
328.15 K, 50000 kPa	793.7
328.15 K, 55000 kPa	796.82
328.15 K, 60000 kPa	799.82
328.15 K, 65000 kPa	802.72
333.15 K, 100 kPa	750.51
333.15 K, 5000 kPa	755.54
333.15 K, 10000 kPa	760.26
333.15 K, 15000 kPa	764.69
333.15 K, 20000 kPa	768.87
333.15 K, 25000 kPa	772.87
333.15 K, 30000 kPa	776.68
333.15 K, 35000 kPa	780.35
333.15 K, 40000 kPa	783.87
333.15 K, 45000 kPa	787.29
333.15 K, 50000 kPa	790.54
333.15 K, 55000 kPa	793.66
333.15 K, 60000 kPa	796.72
333.15 K, 65000 kPa	799.67
